One block for each compound: values may come before it.
What was measured:
[1] = Aqueous stability of RSSH precursors in PBS; assay type: physicochemical; conditions: PBS pH 7.4, 37 °C, over 9 h
Protocol: We synthesized AST-2 as an esterase-sensitive RSSH donor via reaction of N-acetylpenicillamine methyl ester with methoxycarbonyl sulfenyl chloride in dichloromethane at 0 °C, affording the product in 72% yield (see Scheme S1). We first evaluated the aqueous stability of AST-2 in phosphate-buffered saline (PBS, pH 7.4) at 37 °C.
APT-1 was synthesized in 93% overall yield via a one-pot two-step sequence: N-acetylpenicillamine methyl ester was reacted with chlorocarbonylsulfenyl chloride to afford an S-perthiocarbonyl chloride intermediate, which was subsequently treated with 2-acetoxy-N-methylethan-1-aminium chloride in the presence of triethylamine (see Supporting Information).
We first evaluated the aqueous stability of the mitochondria-targeted analogs AST-2-TPP and APT-1-TPP. […] APT-1-TPP similarly retained excellent stability, with < 5% degradation over 41 h (Figure S1D).

H9c2 cells [2] = assay: Intracellular ATP levels (CellTiter-Glo) under DOX; assay type: cell-based; conditions: DOX 5 μM, 24 h
Protocol: (§1) Figure 6. a) Basal sulfane sulfur (SS) levels in H9c2 cardiomyocyte, MDA-MB-468, MCF-7, and HepG2 cell lines as detected by SSP4 fluorescence. b) Representative images and c) basal levels of mitochondrial membrane potential (MMP) in H9c2 and cancer cells (MDA-MB-468, MCF-7, and HepG2). d) Impact of APT-1 (25 μM) or APT-1-TPP (25 μM) on MMP in DOX (5 μM)-treated (d) H9c2 and e) HepG2 cells. Impact of APT-1 (25 μM) and APT-1-TPP (25 μM) on ATP levels in DOX (5 μM)-treated f) H9c2 and g) HepG2 cells. Results are expressed as mean ± SEM, n = 3–6; *P < 0.05, **P < 0.01, ***P < 0.001, ****P < 0.0001. Significances in (a) and (c) are presented with respect to H9c2 cells.
(§2) We then examined how RSSH donors influence MMP during DOX exposure. As expected, DOX alone induced mitochondrial depolarization in H9c2 cells, reducing MMP to ca. 50% of control (Figure 6d). […] To complement these observations, we quantified intracellular ATP levels as a functional readout of mitochondrial activity. […]
Briefly, H9c2 cells and HepG2 cells were seeded in 96-well white-bottom plate (Alkali Scientific, SKU:TPW9096, TC-treated) at 5000 cells/well. After treatment (Ctrl, 5 μM DOX alone, 4 h pretreatment of 25 μM APT-1 + 24 h cotreatment with 5 μM DOX, and 4 h pretreatment of 25 μM APT-1-TPP + 24 h cotreatment with 5 μM DOX, in clear DMEM medium with 10% FBS), cells were equilibrated at rt for 30 min before CellTiter-Glo® reagent was added to each well. Plates were then placed on an orbital shaker for 2 min and incubated at rt for another 20 min.
Chemiluminescence was measured using Tecan plate reader (SPARK Part No. 30124664 Version 1.7, serial No. 1909010319). Cellular AT P concentration was calculated based on the AT P calibration curve and normalized to cell count. […] Each treatment condition was performed in 6 technical replicates per biological replicate, and the experiment was independently repeated three times (n = 3 biological replicates).
Data are presented as mean ± SEM. […]

H9c2 cells [3] = assay: Mitochondrial membrane potential (TMRM) under DOX; assay type: cell-based; conditions: DOX 5 μM, 24 h, TMRM
Protocol: as §1, §2
Mitochondrial Membrane Potential Measurements
Mitochondrial membrane potential was measured using Image-iT™ TMRM Reagent (Cat#I34361, Invitrogen, USA) according to the manufacturer's protocols. […]
The cells were incubated for an additional 24 h. After completion of treatment, cells were washed with a warm clear DMEM medium (with 10% FBS) and incubated in culture media containing TMRM (working solution 100 nM) for 30 min at 37 °C. Cells were then washed with a warm clear FBS-free DMEM medium (3 times) before imaging. Images were obtained with Zeiss LSM 800 with AiryScan Confocal (λex = 548 nm, λem = 573 nm). During each experiment, 6 field images were obtained for each experimental group. Images were analyzed using Image J software, and all cells in each image were selected for fluorescence intensity measurement (cell-free space was also measured as blank). H9c2 signal intensity was set to 100% and signal intensity for all the other cell lines was shown as a percentage of that of H9c2.
The experiments were independently repeated three times (n = 3 biological replicates). Data are […]
Figure S24. Representative TMRM images for mitochondrial membrane potential (MMP) in H9c2 and HepG2 cells with APT-1 and APT-1-TPP treatment under DOX stress. Ctl = vehicle (medium with 0.01% […]
(1 picture or pasted object on this page, not shown here)

[4] = Cytoprotection against DOX-induced toxicity, CCK-8 assay; assay type: cell-based; conditions: rat, H9c2 cells; DOX 5 μM, 24 h, CCK-8; read-out: cell viability, DOX alone
Protocol: (§3) We evaluated the cytoprotective effects of RSSH precursors against DOX-induced cardiotoxicity in H9c2 cardiomyoblasts. First, we assessed the cytotoxicity of the RSSH donors (AST-2, APT-1, AST-2-TPP, and APT-1-TPP) using the CCK-8 assay.[24] […] To evaluate cytoprotection, H9c2 cells were pretreated with RSSH donors for 4 h, followed by 24 h co-treatment with DOX (5 μM). As expected, DOX alone reduced cell viability to ca. 50% (Figure 4a). […] Although both compounds were protective, no enhancement of potency was observed upon TPP conjugation. […] A distinctive feature of our study is the direct comparison between mitochondria-targeted and non-targeted RSSH donors. […] TPP conjugation only modestly enhances the cytoprotective effects of RSSH donors under our experimental conditions. This outcome may reflect the intrinsic high efficacy of non-targeted RSSH donors, thereby limiting the additional benefit of mitochondrial targeting.
(§4) Figure 4. Protective effects of RSSH donors against DOX-induced cytotoxicity in H9c2 cells. Cells were pretreated with RSSH donors for 4 h, followed by exposure to DOX (5 μM) for an additional 24 h. Cell viability was assessed using the cell counting Kit-8 (CCK-8) assay. Results are expressed as mean ± SEM, n = 3; *P < 0.05, **P < 0.01, ***P < 0.001, ****P < 0.0001. Ctl = vehicle-treated group (0.01% DMSO in medium). […]
(§5) Cytoprotective Effects of RSSH Donors against Doxorubicin Toxicity
(§6) Cytoprotective studies were performed as previously described.[8] Briefly, H9c2 cells, HepG2 cells, MDA-MB-468 cells, and MCF-7 cells were seeded at a density of 7 x 10^3 cells/well. […] Additionally, in the vehicle control group, cells were treated with medium (DMEM with 10% FBS) containing 0.01% DMSO only. The cells were then further incubated for an additional 4 h before being treated with DOX (10 μL/well, with final concentration of 5 μM). After a 24 h co-incubation with DOX, each well was carefully washed three times with PBS (pH 7.4) and 100 μL o f F B S-free medium containing 10% v/v CCK-8 (Dojindo) was added. The plates were then incubated for 1-2 h before measuring absorbance at […]
(§7) The relative % cell viability was calculated as 100 times the ratio of Abs450 (RSSH donor + DOX-exposed) to Abs450 (vehicle, non-DOX-exposed). Each treatment condition was performed in 6 technical replicates per biological replicate, and the experiment was independently repeated three times (n = 3 biological replicates). Data are presented as mean ± SEM. […]

H9c2 cells [5] = assay: as above; assay type: cell-based; conditions: 4 h pretreatment, then 24 h co-treatment with DOX 5 μM
Protocol: as §3, §4, §5, §6, §7

decomposition (aqueous stability) [1]: complete degradation
SMILES: COC(=O)C(NC(C)=O)C(C)(C)SSC(=O)Oc1ccccc1 (centres unmarked) [AST-1, reference compound]

ATP level, DOX alone (H9c2 cells [2]): significantly depleted ATP
SMILES: COc1cccc2c1C(=O)c1c(O)c3c(c(O)c1C2=O)C[C@@](O)(C(=O)CO)C[C@@H]3O[C@H]1C[C@H](N)[C@H](O)[C@H](C)O1 [DOX, Doxorubicin]
MMP, DOX alone (H9c2 cells [3]): ca. 50 % of control
viability at 24 h, 5 µM [4]: ~50%

SMILES: COC(=O)[C@@H](NC(C)=O)C(C)(C)S [Pen-SH, N-acetyl penicillamine methyl ester, reference compound]
protection against DOX-induced cytotoxicity (H9c2 cells [5]): failed to mitigate DOX-induced cytotoxicity
